What is called IC50 is the concentration at which inhibition is half-maximal. Read a high IC50 as a need for much substance.

One assay addresses LRRK2 (Homo sapiens, UniProt Q5S007). In words: LRRK2 enzyme activity, ADP-Glo kinase assay. The format is biochemical. Particulars: purified human LRRK2, ATP 10 μM, 25° C., 2 hours. On the set-up: purchased Invitrogen PR8604B. As for the experimental part: To evaluate the inhibitory activity of the compound according to the present invention against LRRK2 and JNKs, an experiment was performed as follows.
The compound of Example 7 was reacted with a purified human LRRK2 (Invitrogen #PR8604B) enzyme to evaluate an ability of the compound of Example 7 to inhibit the enzyme using a method as described below. A composition of 40 mM Tris-HCl (pH 7.4), 20 mM MgCl2, 0.5 mg/mL BSA, and 50 μM DTT was used as a reaction buffer, and all reactions of test substances were performed in the reaction buffer. The compound was diluted […] from a 10 mM DMSO stock using a serial dilution method, and enzyme activity was measured at final compound concentrations of 50, 10, 2, 0.4, 0.08, 0.016, 0.0032, 0.00064, 0.000128, 0.0000256, 0.00000512, and 0.000001024 μM. In the test, purified ATP (10 μM) and an enzyme substrate (0.2 μg) were reacted with a human LRRK2 (25 ng) enzyme at 25° C. for 2 hours, and the enzyme activity was then determined using an in vitro ADP-Glo™ kinase assay (Promega). An enzyme-activity reaction solution, an ADP-Glo reaction solution, and an enzyme-ability detection solution were reacted at a ratio of 2:2:1 to measure a degree of inhibition of the enzyme activity with luminescence. […]
For orientation: In ADP-Glo the light output rises with the ADP produced.

The target in the next assay is T1, FLT3(D835V) (Homo sapiens, UniProt P36888, D835V).
T1 construct: purchased DiscoverX Corp. (ScanMAX Kinase panel, commissioned)
In words: ScanMAX Kinase panel (DiscoverX). The format is binding. The settings on record: read-out: % Cont @ 1 μM. The method, then: (§1) Specifically, the enzyme (kinase) selectivity of the compound of Example 7 selected from the Example compounds of the present invention was measured by commissioning DiscoverX Corp., and an experiment was performed using a panel for ScanMAX™ Kinase analysis.
(§2) In this case, the concentration of a drug treated with the enzyme was set at 1 μM in DMSO, and percent control (% control) was defined in the same manner as in the following Expression 1.
(§3) (Example compound−Positive control)/(Negative control−Positive control)×100 [Expression 1]
(§4) Wherein the positive control represents a compound having a percent control of 0%, and the negative control represents a compound having a percent control of 100% in DMSO. For the enzyme selectivity of the present invention, the compound was also judged to have activity against the corresponding enzyme when the percent control for each of the enzymes was <30% (i.e., less than 30%).

The target of another assay is T2, MEK3 (Homo sapiens, UniProt P46734).
T2 construct: purchased DiscoverX Corp. (ScanMAX Kinase panel, commissioned)
In words: ScanMAX Kinase panel (DiscoverX). The format is binding. The settings on record: read-out: % Cont @ 1 μM. As for the experimental part:
as §1, §2, §3, §4

The target in another assay is T3, JNK3 (Homo sapiens, UniProt P53779).
T3 construct: purchased DiscoverX Corp. (ScanMAX Kinase panel, commissioned)
Briefly: JNK enzyme activity, Kinase HotSpot service (Reaction Biology Corporation). It is filed as biochemical. Particulars: ATP concentration of 10 μM. As for the experimental part:
(§5) IC50 values of the compound of Example 7 for the enzymes were measured using the Kinase HotSpot service (Reaction Biology Corporation), and a test was performed under the same conditions at an ATP concentration of 10 μM. The concentration of the compound was measured at a 3-fold concentration gradient from the peak concentration of 10 mM.
(§6) All the experimental methods were performed as provided in the Kinase HotSpot Customer Protocol (http://www.reactionbiology.com//Kinase_Assay_Protocol).

For another assay, the target named is T4, JNK2 (Homo sapiens, UniProt P45984).
T4 construct: purchased DiscoverX Corp. (ScanMAX Kinase panel, commissioned)
The assay is described as above. Particulars: ATP concentration of 10 μM. The format is biochemical. As for the experimental part: as §5, §6

A further assay addresses T5, JNK1 (Homo sapiens, UniProt P45983).
T5 construct: purchased DiscoverX Corp. (ScanMAX Kinase panel, commissioned)
The assay is described as above. It is filed as biochemical. Particulars: ATP concentration of 10 μM. The method, then: as §5, §6

T4 sequence (P45984 whole entry): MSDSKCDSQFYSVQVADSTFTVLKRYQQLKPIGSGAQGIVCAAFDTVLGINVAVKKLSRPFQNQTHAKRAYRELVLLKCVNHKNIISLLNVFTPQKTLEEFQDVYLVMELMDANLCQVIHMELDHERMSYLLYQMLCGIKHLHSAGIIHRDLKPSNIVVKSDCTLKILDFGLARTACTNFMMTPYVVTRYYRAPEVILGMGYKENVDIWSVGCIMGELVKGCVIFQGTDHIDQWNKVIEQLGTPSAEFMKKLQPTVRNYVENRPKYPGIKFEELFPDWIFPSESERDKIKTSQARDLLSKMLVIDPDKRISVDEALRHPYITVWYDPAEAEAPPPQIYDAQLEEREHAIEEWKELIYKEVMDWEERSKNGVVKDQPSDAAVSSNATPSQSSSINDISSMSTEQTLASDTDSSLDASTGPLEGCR
T3 sequence (P53779 whole entry): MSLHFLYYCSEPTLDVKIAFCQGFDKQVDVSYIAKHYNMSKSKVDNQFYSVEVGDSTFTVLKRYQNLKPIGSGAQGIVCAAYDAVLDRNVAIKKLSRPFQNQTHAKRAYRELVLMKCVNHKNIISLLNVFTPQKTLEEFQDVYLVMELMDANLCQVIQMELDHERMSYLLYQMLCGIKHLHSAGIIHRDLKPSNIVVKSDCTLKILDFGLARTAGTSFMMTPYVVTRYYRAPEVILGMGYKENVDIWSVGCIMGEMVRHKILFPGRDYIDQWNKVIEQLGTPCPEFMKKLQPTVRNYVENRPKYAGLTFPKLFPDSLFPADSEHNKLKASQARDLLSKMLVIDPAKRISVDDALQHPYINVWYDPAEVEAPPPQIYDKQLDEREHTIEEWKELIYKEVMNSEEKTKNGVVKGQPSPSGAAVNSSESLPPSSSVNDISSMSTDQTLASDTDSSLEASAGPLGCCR
Chain of LRRK2 (Q5S007 970-2527 limits assumed): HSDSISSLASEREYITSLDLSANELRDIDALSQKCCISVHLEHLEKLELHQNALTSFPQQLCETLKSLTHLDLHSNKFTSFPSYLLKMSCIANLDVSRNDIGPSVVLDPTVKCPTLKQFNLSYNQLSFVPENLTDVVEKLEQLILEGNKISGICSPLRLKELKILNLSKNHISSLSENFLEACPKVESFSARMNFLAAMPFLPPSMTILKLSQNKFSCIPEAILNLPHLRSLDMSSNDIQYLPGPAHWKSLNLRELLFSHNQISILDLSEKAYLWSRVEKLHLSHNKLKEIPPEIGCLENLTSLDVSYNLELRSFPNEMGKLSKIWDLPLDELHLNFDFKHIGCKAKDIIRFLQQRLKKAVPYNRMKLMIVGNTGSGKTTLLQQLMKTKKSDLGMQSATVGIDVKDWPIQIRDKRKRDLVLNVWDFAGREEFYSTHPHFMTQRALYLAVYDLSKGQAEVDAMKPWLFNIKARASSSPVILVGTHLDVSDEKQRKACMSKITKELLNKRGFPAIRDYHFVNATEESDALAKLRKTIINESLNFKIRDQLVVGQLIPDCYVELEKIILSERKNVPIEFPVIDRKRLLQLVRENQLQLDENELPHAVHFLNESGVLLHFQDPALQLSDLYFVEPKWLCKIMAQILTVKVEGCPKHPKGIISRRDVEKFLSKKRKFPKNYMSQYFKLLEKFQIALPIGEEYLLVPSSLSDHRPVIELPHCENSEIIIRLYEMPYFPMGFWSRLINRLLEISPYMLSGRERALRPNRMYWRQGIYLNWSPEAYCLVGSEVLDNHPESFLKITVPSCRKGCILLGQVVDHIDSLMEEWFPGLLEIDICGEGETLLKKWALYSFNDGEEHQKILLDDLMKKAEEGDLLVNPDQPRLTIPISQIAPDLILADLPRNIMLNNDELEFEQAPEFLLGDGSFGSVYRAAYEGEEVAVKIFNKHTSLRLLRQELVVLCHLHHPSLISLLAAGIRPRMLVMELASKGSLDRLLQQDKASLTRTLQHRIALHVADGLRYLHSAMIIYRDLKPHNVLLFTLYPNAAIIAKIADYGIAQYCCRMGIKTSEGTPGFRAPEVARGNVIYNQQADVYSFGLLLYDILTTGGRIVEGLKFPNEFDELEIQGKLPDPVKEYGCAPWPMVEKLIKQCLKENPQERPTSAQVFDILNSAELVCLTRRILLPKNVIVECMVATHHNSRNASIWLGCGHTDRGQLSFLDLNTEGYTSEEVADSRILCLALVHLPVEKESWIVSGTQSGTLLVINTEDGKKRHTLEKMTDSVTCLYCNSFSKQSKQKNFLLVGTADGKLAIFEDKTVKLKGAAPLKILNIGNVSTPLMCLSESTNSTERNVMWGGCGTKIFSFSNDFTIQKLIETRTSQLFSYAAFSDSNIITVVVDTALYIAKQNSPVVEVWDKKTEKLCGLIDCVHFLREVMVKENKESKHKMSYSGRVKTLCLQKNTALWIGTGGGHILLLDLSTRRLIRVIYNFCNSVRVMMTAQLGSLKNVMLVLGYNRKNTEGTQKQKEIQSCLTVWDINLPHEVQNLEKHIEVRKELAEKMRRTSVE
T5 sequence (P45983 whole entry): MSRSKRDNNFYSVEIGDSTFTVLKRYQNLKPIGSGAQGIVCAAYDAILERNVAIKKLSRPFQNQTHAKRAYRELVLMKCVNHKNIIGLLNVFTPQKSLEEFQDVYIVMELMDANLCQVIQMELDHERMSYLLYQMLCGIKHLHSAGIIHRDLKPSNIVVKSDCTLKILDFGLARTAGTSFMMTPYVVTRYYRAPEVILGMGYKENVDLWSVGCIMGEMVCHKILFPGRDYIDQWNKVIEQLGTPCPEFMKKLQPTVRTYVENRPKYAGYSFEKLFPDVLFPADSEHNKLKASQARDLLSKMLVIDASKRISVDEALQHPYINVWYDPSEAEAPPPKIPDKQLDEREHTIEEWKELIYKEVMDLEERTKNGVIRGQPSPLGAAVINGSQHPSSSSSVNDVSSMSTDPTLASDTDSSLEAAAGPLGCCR
T2 sequence (P46734 whole entry): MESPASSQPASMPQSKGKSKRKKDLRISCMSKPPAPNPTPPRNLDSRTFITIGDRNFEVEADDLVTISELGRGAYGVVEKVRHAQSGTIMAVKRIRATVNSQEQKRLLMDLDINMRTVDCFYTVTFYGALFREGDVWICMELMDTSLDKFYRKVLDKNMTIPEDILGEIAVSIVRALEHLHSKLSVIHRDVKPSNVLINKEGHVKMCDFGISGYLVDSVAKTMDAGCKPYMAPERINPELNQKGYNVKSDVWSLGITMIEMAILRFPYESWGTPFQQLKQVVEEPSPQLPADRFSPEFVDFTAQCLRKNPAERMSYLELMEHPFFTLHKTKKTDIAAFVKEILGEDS

In the case of `COc1cc(-c2ccnn2C)ccc1Nc1nc(NC2CCCCC2)c2c(C#N)c[nH]c2n1` [Example 7, 4-(cyclohexylamino)-2-((2-methoxy-4-(1-methyl-1H-pyrazol-5-yl)phenyl)amino)-7H-pyrrolo[2,3-d] pyrimidine-5-carbonitrile], the IC50 at LRRK2 was less than 1 µM; on JNK3, less than 0.1 µM; against JNK2, less than 0.1 µM; against JNK1 it was less than 0.1 µM. Also, the results for the remaining binding at 1 µM on FLT3(D835V) and on MEK3 were 5.6% and 18%, respectively.

(Values after patent US20230183243A1, “HETEROARYL DERIVATIVES AND PHARMACEUTICAL COMPOSITION COMPRISING SAME AS ACTIVE INGREDIENT” (VORONOI INC., priority 2019, published 2023).)
